From patent US12370192B2, “Azole-fused pyridazin-3(2H)-one derivatives” (TAKEDA PHARMACEUTICAL COMPANY LIMITED, priority 2019, dated 2025)

Key:
human GPR139 receptor [1] = target: T1, human GPR139 receptor (Homo sapiens, UniProt Q6DWJ6); assay: Measurement of GPR139 Activation Via Calcium Signaling (FLIPR, T-REx-CHO cells); assay type: cell-based; conditions: T-REx-CHO cells stably expressing human GPR139, 11-point dose response, 10 μM maximum concentration, read-out: GPR139 Potency (pEC50) (converted)
T1 construct: expressed in transfected cells; host or cells: T-REx-CHO (Thermo Fisher Scientific), doxycycline-induced
T1 sequence (Q6DWJ6 1-353): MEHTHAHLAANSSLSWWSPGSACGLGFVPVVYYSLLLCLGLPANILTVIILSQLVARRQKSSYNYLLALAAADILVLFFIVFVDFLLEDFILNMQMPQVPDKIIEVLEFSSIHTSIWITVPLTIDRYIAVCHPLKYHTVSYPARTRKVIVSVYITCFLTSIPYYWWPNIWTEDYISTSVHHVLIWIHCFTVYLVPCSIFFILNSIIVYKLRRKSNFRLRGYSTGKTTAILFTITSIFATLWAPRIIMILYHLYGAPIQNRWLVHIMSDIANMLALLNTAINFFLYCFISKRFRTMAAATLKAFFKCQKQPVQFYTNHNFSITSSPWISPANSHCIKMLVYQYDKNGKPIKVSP
Summary of the method: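 T-REx-CHO cells stably carrying human GPR139 under tetracycline control, induced with 2 μg/mL doxycycline for 17 h at 37 °C, loaded 40 min with Calcium 5 dye plus probenecid in HBSS/HEPES pH 7.4. Agonist added as 11-point series (10 μM top); fluorescence read 1 min; pEC50 from four-parameter fit.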

human GPR139 receptor [2] = target: T1, human GPR139 receptor; assay: GPR139 Competition Binding (membrane-based, tritium-labeled ligand); conditions: T-REx-CHO membranes with human GPR139; 6.5 nM tritium-labeled ligand; 11-point curve, 30 μM maximum concentration; read-out: GPR139 Binding Affinity (pKi) (converted)
Summary of the method: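 Membranes came from doxycycline-induced T-REx-CHO cells expressing human GPR139. They were incubated 20 min at room temperature with 6.5 nM tritiated ligand and compound (11 points, top 30 μM) in HEPES pH 7.3 buffer with MgCl2/CaCl2. Filter-bound counts gave Ki by four-parameter fit, reported as pKi.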

Row | SMILES | EC50 (human GPR139 receptor [1]) | Ki (human GPR139 receptor [2])
1 | Cc1ccc([C@H](C)NC(=O)Cn2ncc3c(c(C)nn3C(C)C)c2=O)c(F)c1 [Example 92, (S)—N-(1-(2-fluoro-4-methylphenyl)ethyl)-2-(1-isopropyl-3-methyl-4-oxo-1,4-dihydro-5H-pyrazolo[3,4-d]pyridazin-5-yl)acetamide] | 57.5 nM | 100 nM
2 | Cc1nn(C2CC2)c2cnn(CC(=O)NC(C)c3ccc4c(c3)CCCO4)c(=O)c12 (stereo not drawn) [Example 104, N-(1-(chroman-6-yl)ethyl)-2-(1-cyclopropyl-3-methyl-4-oxo-1,4-dihydro-5H-pyrazolo[3,4-d]pyridazin-5-yl)acetamide] | 61.7 nM | 794 nM
3 | C[C@H](NC(=O)Cn1nc(C2CC2)c2cnn(-c3ccccc3)c2c1=O)c1ccc(C(F)(F)F)cc1 [Example 44, (S)-2-(4-cyclopropyl-7-oxo-1-phenyl-1,7-dihydro-6H-pyrazolo[3,4-d]pyridazin-6-yl)-N-(1-(4-(trifluoromethyl)phenyl)ethyl)acetamide] | 3630 nM | 105 nM
4 | COc1ccc([C@H](C)NC(=O)Cn2ncc3c(c(C)nn3C3CC3)c2=O)cc1 [Example 110, (S)-2-(1-cyclopropyl-3-methyl-4-oxo-1,4-dihydro-5H-pyrazolo[3,4-d]pyridazin-5-yl)-N-(1-(4-methoxyphenyl)ethyl)acetamide] | 69.2 nM | 1660 nM
5 | Cc1ccc([C@H](C)NC(=O)Cn2ncc3c(cnn3C(C)C)c2=O)c(F)c1 [Example 88, (S)—N-(1-(2-fluoro-4-methylphenyl)ethyl)-2-(1-isopropyl-4-oxo-1,4-dihydro-5H-pyrazolo[3,4-d]pyridazin-5-yl)acetamide] | 77.6 nM | 676 nM
6 | Cc1cn(C2CC2)c2cnn(CC(=O)N[C@@H](C)c3ccc(C(F)(F)F)cc3)c(=O)c12 [Example 144, (S)-2-(1-cyclopropyl-3-methyl-4-oxo-1,4-dihydro-5H-pyrrolo[2,3-d]pyridazin-5-yl)-N-(1-(4-(trifluoromethyl)phenyl)ethyl)acetamide] | 83.2 nM | 20 nM
7 | Cc1ccc([C@H](C)NC(=O)Cn2nc(C)c3c(ncn3C)c2=O)cc1 [Example 29, (S)-2-(1,7-dimethyl-4-oxo-1,4-dihydro-5H-imidazo[4,5-d]pyridazin-5-yl)-N-(1-(p-tolyl)ethyl)acetamide] | 513 nM | 30200 nM
8 | COc1ccc([C@H](C)NC(=O)Cn2ncc3ccn(C)c3c2=O)cc1 [Example 163, (S)—N-(1-(4-methoxyphenyl)ethyl)-2-(1-methyl-7-oxo-1,7-dihydro-6H-pyrrolo[2,3-d]pyridazin-6-yl)acetamide] | 15.5 nM | 1780 nM
9 | Cc1nn(C2CC2)c2cnn(CC(=O)N[C@@H](C)c3ccc(C(F)(F)F)cc3)c(=O)c12 [Example 107, (S)-2-(1-cyclopropyl-3-methyl-4-oxo-1,4-dihydro-5H-pyrazolo[3,4-d]pyridazin-5-yl)-N-(1-(4-(trifluoromethyl)phenyl)ethyl)acetamide] | 42.7 nM | 245 nM
10 | Cc1nn(C2CC2)c2cnn(CC(=O)N[C@@H](C)c3ccc(Cl)cc3F)c(=O)c12 [Example 24, (S)—N-(1-(4-chloro-2-fluorophenyl)ethyl)-2-(1-cyclopropyl-3-methyl-4-oxo-1,4-dihydro-5H-pyrazolo[3,4-d]pyridazin-5-yl)acetamide] | 46.8 nM | 97.7 nM
11 | Cc1ccc([C@H](C)NC(=O)Cn2nc(C)c3c(c(C)nn3C(C)C)c2=O)c(F)c1 [Example 54, (S)—N-(1-(2-fluoro-4-methylphenyl)ethyl)-2-(1-isopropyl-3,7-dimethyl-4-oxo-1,4-dihydro-5H-pyrazolo[3,4-d]pyridazin-5-yl)acetamide] | 107 nM | 87.1 nM
12 | Cc1ccc([C@H](C)NC(=O)Cn2nc(C3CC3)c3cnn(-c4ccccc4)c3c2=O)c(F)c1 [Example 42, (S)-2-(4-cyclopropyl-7-oxo-1-phenyl-1,7-dihydro-6H-pyrazolo[3,4-d]pyridazin-6-yl)-N-(1-(2-fluoro-4-methylphenyl)ethyl)acetamide] | ≥ 10000 nM | 19.5 nM
13 | Cc1ccc([C@H](C)NC(=O)Cn2ncc3c(cnn3C)c2=O)cc1 [Example 33, (S)-2-(1-methyl-4-oxo-1,4-dihydro-5H-pyrazolo[3,4-d]pyridazin-5-yl)-N-(1-(p-tolyl)ethyl)acetamide] | 66.1 nM | 5250 nM
14 | C[C@H](NC(=O)Cn1ncc2c(ncn2C)c1=O)c1ccc(C(F)(F)F)cc1 [Example 141, (S)-2-(1-methyl-4-oxo-1,4-dihydro-5H-imidazo[4,5-d]pyridazin-5-yl)-N-(1-(4-(trifluoromethyl)phenyl)ethyl)acetamide] | 457 nM | 5890 nM
15 | Cc1nn(CC(=O)N[C@@H](C)c2ccc(C(F)(F)F)cc2)c(=O)c2c(C3CC3)nn(C)c12 [Example 120, (S)-2-(3-cyclopropyl-1,7-dimethyl-4-oxo-1,4-dihydro-5H-pyrazolo[3,4-d]pyridazin-5-yl)-N-(1-(4-(trifluoromethyl)phenyl)ethyl)acetamide] | 182 nM | 17.4 nM
16 | COc1ccc([C@H](C)NC(=O)Cn2ncc3c(c(C)nn3C3CC3)c2=O)cc1F [Example 129, (S)-2-(1-cyclopropyl-3-methyl-4-oxo-1,4-dihydro-5H-pyrazolo[3,4-d]pyridazin-5-yl)-N-(1-(3-fluoro-4-methoxyphenyl)ethyl)acetamide] | 53.7 nM | 724 nM
17 | Cc1nn(C(C)(C)C)c2cnn(CC(=O)N[C@@H](C)c3ccc(C(F)(F)F)cc3)c(=O)c12 [Example 157, (S)-2-(1-(tert-butyl)-3-methyl-4-oxo-1,4-dihydro-5H-pyrazolo[3,4-d]pyridazin-5-yl)-N-(1-(4-(trifluoromethyl)phenyl)ethyl)acetamide] | 126 nM | 234 nM
18 | Cc1ccc([C@H](C)NC(=O)Cn2nc(C)c3c(c(C)nn3C(C)C)c2=O)cc1 [Example 55, (S)-2-(1-isopropyl-3,7-dimethyl-4-oxo-1,4-dihydro-5H-pyrazolo[3,4-d]pyridazin-5-yl)-N-(1-(p-tolyl)ethyl)acetamide] | 83.2 nM | 380 nM
